Series [1] has as its system adult B. malayi female worms. The series is described as follows: Adult female B. malayi incubation with UGT inhibitor in combination with albendazole, worm motility. Type of series: cell-based, Brugia malayi. To be noted: 8 days. Here is the method: (§1) Worm motility: Worms were visualized with a dissecting microscope by an observer blinded to treatment category. Motility of the adult female B. malayi worms was rated based on the following scale: 4=active movement, 3=modest reduction in movement, 2=severe reduction in movement, 1=twitching, and 0=no movement.
For the probenecid samples, adult female worms were incubated in culture media with the drug for 8 days at concentration of 100 μM alone or in combination with 10 μM of albendazole. Worms were transferred into new media with corresponding drug concentrations every other day. As a negative control, worms were incubated in culture media alone. Worm motility was scored using a previously established scale as described in Example 3 for the course of the experiment.

For series [2] the following is noted: cited from earlier work.
In another series the test system is B. malayi microfilariae. The series is described as follows: B. malayi microfilariae incubation with UGT inhibitors (microfilaricidal activity in vitro). It counts as cell-based, Brugia malayi. The note with it: 500 μM. On the procedure:
B. malayi microfilariae incubation with UGT inhibitors: The above UGT inhibitors were evaluated for microfilaricidal activity in vitro. For each drug, experiments were performed in triplicate at a concentration of 2×10^4 Mf/mL in culture media. Viability was determined by quantifying the number of motile larvae from 100 randomly selected microfilariae per well. […] As a negative control, larvae were incubated in culture media alone. The UGT inhibitor experiments were repeated two times under similar conditions.

The nature of series [3]: UGT inhibitor LDH cytotoxicity assay. To be noted: human. It counts as cell-based. Here is the method: UGT Inhibitor Cytotoxicity Assay: Cytotoxicity of the UGT inhibitors was measured using a Pierce LDH Cytotoxicity Assay Kit (Thermo Fisher Scientific, Carlsbad, Calif., US). HEK cells were seeded at 5×10^4 per well in DMEM (Quality Biological, Gaithersburg, Md., US) with 10% Hyclone Cosmic Calf Serum (Thermo Fisher Scientific, Carlsbad, Calif., US), 200 μM of L-glutamine (Quality Biological, Gaithersburg, Md., US), and 50 μg/mL of gentamicin (Quality Biological, Gaithersburg, Md., US) at 37° C. in 5% CO2. The cells were then incubated with various concentrations of the UGT inhibitors overnight. Following this, 50 μL of media was transferred from each well to a new 96-well plate and then added 50 μL of reaction buffer. The mixture was incubated for 30 minutes and then added 50 μL of stop solution. Absorbance was measured at 490 nm and 680 nm. The following controls were included in the experiment: a spontaneous lactate dehydrogenase (LDH) activity control that was incubated with the vehicle only and a maximum LDH activity control that was incubated with nothing but later lysed prior to incubation with the reaction buffer. Absorbance was calculated for each well by subtracting the 680 nm absorbance value (background) from the 490 nm absorbance value. Percent cytotoxicity was calculated using the following equation (Formula 1): [formula]

Series [4] relates to adult B. malayi female worms. The series is described as follows: Adult B. malayi worm incubation with UGT inhibitors, worm motility score (macrofilaricidal activity in vitro). Type of series: cell-based, Brugia malayi. To be noted: for Lowest effective concentration (lowest concentration with significant effect on motility): adult worms in vitro. Here is the method: For the siRNA experiments, data was analyzed using one-way analysis of variance (ANOVA) or T-test by PRISM 7.0 (GraphPad Software, La Jolla, Calif., US). Following ANOVA, individual comparisons of mean values were performed using Tukey's multiple comparisons test. For the UGT inhibitor experiments, area under curve (AUC) analysis was performed followed by one-way ANOVA to determine significance. Statistical significance between the experimental and control groups was designated as follows: * for p values<0.05, ** for p values<0.01, and *** for p values<0.001.
as §1
For probenecid, adult female worms were incubated in culture media with the drug for 7 days at concentrations of 5000 μM, 500 μM, 250 μM, and 100 μM. Worms were transferred into new media with corresponding drug concentrations every other day. As a negative control, worms were incubated in culture media alone. Worm motility was scored using the previously mentioned scale described in Example 3 for the course of the experiment.

The structures appear in SMILES notation. Several values for one entry are separate records, joined by “and”; a condition that tells them apart may be missing. Equal values may be shown once. Read-outs that look alike come from different tables or passages of the source.

For `CCCSc1ccc2nc(NC(=O)OC)[nH]c2c1` [albendazole], the “Adult worm motility, area under the curve (AUC)” value in series [1] (10 μM albendazole alone) is listed as 29.63. Also, in series [1] (10 μM alone), the “Macrofilaricidal activity compared to media alone” value is listed as “Limited macrofilaricidal activity”.
Turning to `CCCN(CCC)S(=O)(=O)c1ccc(C(=O)O)cc1` [probenecid, p-(di-n-propylsulphamyl)-benzoic acid], in series [2] (single 2 g oral dose), the “Adverse events in humans” value is given as “minimal adverse events”; the “Peak concentration in humans” value was 148.6 μg/mL and 520.7 μM. The Microfilaricidal effect entry in the series with B. malayi microfilariae is on record as “no clear microfilaricidal effect”. In series [3], the cytotoxicity at 100 µM is -2.69%, the cytotoxicity at 250 µM is -0.67%, the cytotoxicity at 500 µM was -1.34% and the cytotoxicity at 5000 µM was -2.49%. The “Macrofilaricidal activity in vitro” value in series [4] (500 μM) was “robust macrofilaricidal activity”. The “Adult worm motility, area under the curve (AUC)” value in series [4] (5000 μM, 7 days, media control AUC 24.18) was 8.1. Besides, the “Macrofilaricidal activity in vitro” value in series [4] (adult worms) is recorded as “exhibited macrofilaricidal activity in vitro”. For the same compound, in series [4], the “Lowest effective concentration (lowest concentration with significant effect on motility)” value was determined as 500 µM.
Turning to `O=C1C(CC[S+]([O-])c2ccccc2)C(=O)N(c2ccccc2)N1c1ccccc1` (stereo not shown) [sulfinpyrazone], the Cmax in series [2] (400 mg dose, read-out: Maximum concentration (Cmax) in humans) was 79.9 µM. Moreover, the cytotoxicity at 40 µM in series [3] (HEK cells, 40 μM, overnight, LDH) was -4.03%. The cytotoxicity at 100 µM in series [3] (HEK cells, 100 μM, overnight, LDH, read-out: % Cytotoxicity) was -4.46%. Further, in series [3] (HEK cells, 200 μM, overnight, LDH), the cytotoxicity at 200 µM was -5.35%. Besides, in series [3] (HEK cells, 2000 μM, overnight, LDH), the cytotoxicity at 2000 µM was -4.14%. The “Lowest effective concentration (lowest concentration with significant effect on motility)” value in series [4] turned out to be 200 µM.

The record behind these values is US20210220333A1, “COMPOSITIONS AND METHODS FOR PREVENTING AND/OR TREATING FILARIAL DISEASE” (priority 2018, published 2021).
